# Source: patent publication US20050032124A1, “Identification of genotype-selective agents for treating Huntington's disease” (priority 2003, published 2005)
# What was measured:
# Format in all cases: cell-based, human
# TIP5/TERT/E6/E7 cells = assay: Calcein AM viability assay, dilution-series retest; conditions: TIP5-TERT/E6E7 cells; 16-point two-fold dilution; two days
# From the text: (§1) In a third series, cell lines derived from independently prepared human TIP5 foreskin fibroblasts created by introducing cDNA constructs encoding hTERT, LT, ST and RASV12 (Lessnick et al., 2002, Cancer Cell 1, 393-401) were used. These cell lines were called, respectively: TIP5/TERT, TIP5/TERT/LT, TIP5/TERT/LT/ST, and TIP5/TERT/LT/ST/RAS^V12. In a fourth series, cell lines derived from TIP5 fibroblasts created by introducing cDNA constructs encoding hTERT, E6, E7, ST and RAS^V12 were used. These cell lines were named, respectively: TIP5/TERT/E6, TIP5/TERT/E6/E7, TIP5/TERT/E6/E7/ST, and TIP5/TERT/E6/E7/ST/RAS^V12. In this series, HPV E6 and E7, which inactivate p53 and RB, respectively, serve a similar function as LT in the previous series. However, by using HPV E6 and E7, Applicants were able to observe the effects of inactivating, separately and independently, p53 and RB. Results of a large-scale screen for compounds that display selective killing of these engineered tumorigenic cell lines are described in the examples that follow.
# (§2) Calcein acetoxylmethyl ester (AM) is a cell membrane-permeable, non-fluorescent compound that is cleaved by intracellular esterases to form the anionic, cell-impermeable, fluorescent compound calcein. Viable cells are stained by calcein because of the presence of intracellular esterases and because the intact plasma membrane prevents fluorescent calcein from leaking out of cells (Wang et al., 1993, supra). Cells were seeded in 384-well plates using a Zymark Sciclone ALH, treated with each compound in triplicate at 4 μg/mL in the primary screen for two days, washed with phosphate-buffered saline on a Packard Minitrak with a 384-well washer and incubated for four hours with 0.7 μg/mL calcein (Molecular Probes). Total fluorescence intensity in each well was recorded on a Packard Fusion platereader, and converted to a percent inhibition of signal by subtracting the instrument background and dividing by the average signal obtained when cells were not treated with any compound.
# (§3) Replica daughter plates were prepared with a Zymark Sciclone ALH and integrated Twister II by diluting stock plates 50 fold in medium lacking serum and pen/strep to obtain a compound concentration in daughter plates of 80 μg/ml with 2% DMSO. Assay plates were prepared by seeding cells in black, clear bottom 384-well plates in columns 1-23 (6000 cells/well in 57 μl) using a syringe bulk dispenser. Columns 3-22 were treated with compounds from a daughter library plate by transferring 3 μl from the daughter library plate using 384-position fixed cannula array. The final compound concentrations in assay plates were thus 4 μg/ml. The assay plates were incubated for 48 hours at 37° C. in humidified incubator containing 5% CO2. Plate processing for the calcein AM viability assay was performed using an integrated Minitrak/Sidetrak robotic system from Packard Bioscience (Perkin Elmer). Assay plates were washed with phosphate buffered saline, and 20 μl of calcein AM (0.7 μg/ml) per well was added. Plates were incubated at room temperature for 4 hours. Fluorescence intensity was determined using a Fusion platereader with filters centered on an excitation of 485 nm and an emission of 535 nm.
# (§4) Compounds to be retested were purchased from manufacturers. Stocks were prepared in DMSO at a concentration of 1 mg/ml in 384-well polypropylene plates with a 16-point, two-fold dilution dose curve of each compound in a column, in duplicates. Column 1-2 and 23-24 were left empty for controls. Daughter retest plates were prepared from stock retest plate by diluting 66.6 fold in DMEM in 384-well deep-deep well plates (4.5 μl transfer into 300 μl). Cells were seeded at a density of 6000 per well in 40 μl, and 20 μl was added from a daughter retest plate. The plates were incubated for two days at 37° C. with 5% CO2.
# (§5) Mean RFU (relative fluorescence units) for untreated cells was calculated by averaging columns 1, 2, and 23 (wells with cells but lacking compounds). […]
# [1] = tested on: TIP5/TERT/E6/E7/ST/RAS^V12 cells; assay: Calcein AM viability assay, dilution-series retest; conditions: TIP5-TERT/E6E7/ST/Ras^V12 cells; 16-point two-fold dilution; two days
# From the text: as §1, §2, §3, §4, §5
# TIP5/TERT cells = assay: Calcein AM viability assay, dilution-series retest; conditions: TIP5-TERT cells; 16-point two-fold dilution; two days
# From the text: as §1, §2, §3, §4, §5
# TIP5/TERT/LT cells = assay: Calcein AM viability assay, dilution-series retest; conditions: TIP5 TERT/LT cells; 16-point two-fold dilution; two days
# From the text: as §1, §2, §3, §4, §5
# TIP5/TERT/E6/E7/ST cells = assay: Calcein AM viability assay, dilution-series retest; conditions: TIP5-TERT/E6E7/ST cells; 16-point two-fold dilution; two days
# From the text: as §1, §2, §3, §4, §5
# [2] = tested on: TIP5/TERT/LT/ST/RAS^V12 cells; assay: Calcein AM viability assay, dilution-series retest; conditions: TIP5 TERT/LT/ST/Ras^V12 cells; 16-point two-fold dilution; two days
# From the text: as §1, §2, §3, §4, §5
# BJ-TERT/LT/ST cells = assay: Calcein AM viability assay, dilution-series retest; conditions: BJ-TERT/LT/ST cells; 16-point two-fold dilution; two days
# From the text: (§6) Described here is work carried out to identify compounds with increased potency or activity in the presence of hTERT, LT, ST, E6, E7 or RAS^V12. Engineered cell lines with these genetic elements were used to screen […] compounds, including 20,000 compounds from a combinatorial library, 1,990 compounds from the National Cancer Institute diversity collection, and 1,540 biologically active known compounds that were selected and purchased by Applicant and formatted into a screenable collection. The primary screen tested (in quadruplicate) the effect of treating tumorigenic BJ-TERT/LT/ST/RAS^V12 engineered tumorigenic cells with each compound for 48 hours at a concentration of 4 μg/mL, corresponding to 10 μM for a compound with a molecular weight of 400, which is the approximate median molecular weight of the libraries. Cell viability was measured using the dye calcein acetoxymethyl ester (calcein AM) (Wang et al., 1993, Hum. Immunol. 3 7, 264-270), which is a non-fluorescent compound that freely diffuses into cells. In live cells, calcein AM is cleaved by intracellular esterases, forming the anionic fluorescent derivative calcein, which cannot diffuse out of live cells. […] The IC50 value (concentration required to inhibit 50% of the calcein AM signal) was calculated for each compound in each cell line (Table 1). […] Following is a more detailed analysis of these nine compounds.
# as §2, §3
# (§7) Compounds to be retested were purchased from manufacturers. Stocks were prepared in DMSO at a concentration of 1 mg/ml in 384-well polypropylene plates with a 16-point, two-fold dilution dose curve of each compound in a column, in duplicates. Column 1-2 and 23-24 were left empty for controls. […]
# [3] = tested on: BJ-TERT/LT/RAS^V12/ST cells; assay: Calcein AM viability assay, dilution-series retest; conditions: BJ-TERT/LT/Ras^V12/ST cells; 16-point two-fold dilution; two days
# From the text: as §6, §2, §3, §7
# BJ primary cells [4] = assay: Calcein AM viability assay, dilution-series retest; conditions: BJ cells; 16-point two-fold dilution; two days
# From the text: as §6, §2, §3, §7
# [5] = tested on: BJ-TERT/LT/ST/RAS^V12 tumorigenic cells; assay: Calcein AM viability assay, dilution-series retest
# Experimental: Described here is work carried out to identify compounds with increased potency or activity in the presence of hTERT, LT, ST, E6, E7 or RAS^V12. […] The primary screen tested (in quadruplicate) the effect of treating tumorigenic BJ-TERT/LT/ST/RAS^V12 engineered tumorigenic cells with each compound for 48 hours at a concentration of 4 μg/mL, corresponding to 10 μM for a compound with a molecular weight of 400, which is the approximate median molecular weight of the libraries. Cell viability was measured using the dye calcein acetoxymethyl ester (calcein AM) (Wang et al., 1993, Hum. Immunol. 3 7, 264-270), which is a non-fluorescent compound that freely diffuses into cells. In live cells, calcein AM is cleaved by intracellular esterases, forming the anionic fluorescent derivative calcein, which cannot diffuse out of live cells. […] The IC50 value (concentration required to inhibit 50% of the calcein AM signal) was calculated for each compound in each cell line (Table 1).
# as §2, §3, §4
# BJ primary cells [6] = assay: Sensitization of primary cells by co-treatment, calcein AM viability staining; conditions: BJ (or BJ-TERT) cells; simultaneous treatment
# From the text: (A-C) Western blot of lysates from BJ, BJ-TERT, BJ-TERT/LT/ST, BJ-TERT/LT/ST/RAS^V12, BJ-TERT/LT/RAS^V12 and BJ-TERT/LT/RAS^V12/ST cells with an antibody directed against topoisomerase II (A) or TOPI (B, C). In panel (C), cells were transfected with an siRNA directed against TOPI, lamic A/C or with a control double strand DNA duplex of the same length (TOPI dsDNA). In each case, the blot was probed with an antibody against eIF-4E to identify differences in the amount of protein loaded. The relative amount is quantitated below each band. […] Cell number was determined after transfection with an siRNA directed against TOPI and treatment with the indicated concentrations of camptothecin. (E) Okadaic acid, an inhibitor of PP2A and other cellular phosphatases, sensitizes primary human cells to camptothecin. BJ primary cells were treated simultaneously with the indicated concentrations of both camptothecin and okadaic acid and the effect on calcein AM viability staining was determined. […] BJ primary cells were treated with the indicated concentrations of okadaic acid and the expression level of TOPI was determined by western blot. The relative amount is quantitated below each band.
# The compounds in group (iii) are camptothecin (CPT) and a novel compound from a combinatorial library, which Applicants have named erastin, for eradicator of RAS and ST-expressing cells (FIG. 2). Efficient CPT-induced and erastin-induced cell death requires the presence of both ST and RAS^V12 (FIGS. 3 and 4 and Table 1). Although CPT and erastin have a similar genetic basis of selectivity, they have distinct mechanisms of action. […] The phosphatase inhibitor okadaic acid was capable of sensitizing otherwise resistant BJ primary cells to CPT (FIG. 5E), possibly because okadaic acid upregulates TOPI (FIG. 5F).
smiles,measurement,setting,value
Cc1c2ccccc2c(CSC(=N)N)c2ccccc12.Cl [NSC146109],"IC50, TIP5-TERT/E6E7",TIP5/TERT/E6/E7 cells,2.5 µg/mL
same,"IC50, TIP5-TERT/E6E7 ST/Ras^V12",[1],2.5 µg/mL
same,"IC50, TIP5-TERT",TIP5/TERT cells,>5 µg/mL
same,"IC50, TIP5 TERT/LT",TIP5/TERT/LT cells,>5 µg/mL
same,"IC50, TIP5-TERT/E6E7 ST",TIP5/TERT/E6/E7/ST cells,2.5 µg/mL
same,"IC50, TIP5 TERT/LT/ST/Ras^V12",[2],2.5 µg/mL
same,"IC50, BJ-TERT/LT/ST",BJ-TERT/LT/ST cells,2.5 µg/mL
same,"IC50, BJ-TERT/LT/Ras^V12/ST",[3],2.5 µg/mL
same,"concentration required to achieve 50% inhibition of calcein AM staining (IC50), BJ",BJ primary cells [4],>5 µg/mL
same,"IC50, BJ-TERT/LT/ST/Ras^V12","[5]; BJ-TERT/LT/ST/Ras^V12 cells, 16-point two-fold dilution, two days",2.5 µg/mL
same,Tumor Selectivity,[5]; IC50 in primary BJ cells divided by IC50 in BJ-TERT/LT/ST/RAS^V12 tumorigenic cells,>4
COc1cc([C@@H]2c3cc4c(cc3[C@H](O)[C@H]3COC(=O)[C@H]23)OCO4)cc(OC)c1OC [podophyllotoxin],sensitization of cells to camptothecin,BJ primary cells [6],does not sensitize BJ or BJ-TERT cells to CPT
